Measured values: ChEMBL document CHEMBL1132850, “Design, synthesis and structure-activity relationship of a series of arginine aldehyde factor Xa inhibitors. Part 1: structures based on the (D)-Arg-Gly-Arg tripeptide sequence” (Bioorg Med Chem Lett, 2000)
Square brackets hold non-standard residues; d marks the D form. Peptide text beside a SMILES is read from it. * marks the point of attachment. ξ: configuration not given here. 1Nal = N[C@@H](Cc1cccc2ccccc12)C(=O)O; ξR = N=C(N)NCCCC(N)C(=O)O; Boc = CC(C)(C)OC(=O)*; ξP = O=C(O)C1CCCN1

Legend:
[1] = biological target: Thrombin and coagulation factor X (Homo sapiens) (UniProt P00734+P00742); assay: Ratio of factor Xa inhibitory activity to that of factor IIa inhibitory activity; assay type: protein assay
Chain of Thrombin and coagulation factor X (Homo sapiens) (P00742 whole entry, looked up, other chains not shown): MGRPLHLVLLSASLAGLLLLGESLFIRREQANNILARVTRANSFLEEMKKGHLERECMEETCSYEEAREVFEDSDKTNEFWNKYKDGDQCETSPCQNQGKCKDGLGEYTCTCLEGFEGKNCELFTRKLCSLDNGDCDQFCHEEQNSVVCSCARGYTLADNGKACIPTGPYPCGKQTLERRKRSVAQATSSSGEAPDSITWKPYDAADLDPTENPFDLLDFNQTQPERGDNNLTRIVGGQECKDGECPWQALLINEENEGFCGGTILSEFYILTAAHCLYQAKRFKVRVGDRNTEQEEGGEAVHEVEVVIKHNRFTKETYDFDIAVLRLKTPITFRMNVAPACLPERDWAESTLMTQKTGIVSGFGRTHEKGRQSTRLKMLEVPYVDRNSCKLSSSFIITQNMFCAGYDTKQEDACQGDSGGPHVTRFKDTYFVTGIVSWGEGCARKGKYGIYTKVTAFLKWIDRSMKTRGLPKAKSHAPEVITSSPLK

[2] = Inhibitory activity against prothrombinase complex (IIase).
[3] = biological target: Prothrombin (Homo sapiens, UniProt P00734); assay: Inhibitory activity against coagulation factor II (thrombin).
[4] = biological target: Coagulation factor X (Homo sapiens, UniProt P00742); assay: Inhibitory activity against coagulation factor X.
Chain of Coagulation factor X (Homo sapiens, UniProt P00742) (P00742 41-179 limits assumed): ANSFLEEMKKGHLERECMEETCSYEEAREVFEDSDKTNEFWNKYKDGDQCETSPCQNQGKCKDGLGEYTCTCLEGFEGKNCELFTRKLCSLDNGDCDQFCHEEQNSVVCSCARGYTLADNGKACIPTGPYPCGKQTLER
Chain of Coagulation factor X (Homo sapiens, UniProt P00742) (P00742 235-488 limits assumed): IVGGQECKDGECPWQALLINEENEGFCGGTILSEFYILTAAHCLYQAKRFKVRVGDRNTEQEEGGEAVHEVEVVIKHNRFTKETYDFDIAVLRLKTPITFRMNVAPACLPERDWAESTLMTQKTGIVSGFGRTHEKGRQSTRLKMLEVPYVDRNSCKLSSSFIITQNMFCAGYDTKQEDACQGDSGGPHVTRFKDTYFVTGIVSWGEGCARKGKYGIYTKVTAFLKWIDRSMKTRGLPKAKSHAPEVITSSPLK

[5] = biological target: Coagulation factor X (Bos taurus, UniProt P00743); assay: Second-order rate of substrate hydrolysis (kcat/Km) by bovine coagulation factor X
Chain of Coagulation factor X (Bos taurus, UniProt P00743) (P00743 41-180 limits assumed): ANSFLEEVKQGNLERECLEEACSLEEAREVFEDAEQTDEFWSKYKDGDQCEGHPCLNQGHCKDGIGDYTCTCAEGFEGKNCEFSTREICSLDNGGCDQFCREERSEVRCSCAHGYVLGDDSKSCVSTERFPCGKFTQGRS
Chain of Coagulation factor X (Bos taurus, UniProt P00743) (P00743 234-492 limits assumed): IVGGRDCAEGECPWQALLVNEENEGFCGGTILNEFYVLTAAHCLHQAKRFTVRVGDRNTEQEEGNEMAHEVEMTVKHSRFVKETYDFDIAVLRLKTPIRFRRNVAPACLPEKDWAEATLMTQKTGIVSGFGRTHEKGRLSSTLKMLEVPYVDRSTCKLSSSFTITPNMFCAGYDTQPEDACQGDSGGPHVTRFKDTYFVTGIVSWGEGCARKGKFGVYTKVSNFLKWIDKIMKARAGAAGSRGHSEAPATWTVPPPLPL

SMILES: C/N=C(\N(C)C)N(C)CCCC[C@H](NC(=O)OC(C)(C)C)C(=O)NCC(=O)NC(C=O)CCCN=C(N)N (some centres undefined)
- Ratio [1]: 30
- IC50 [2]: 12000 nM

SMILES: C/N=C(\N(C)C)N(C)CCCC[C@H](NC(=O)OC(C)(C)C)C(=O)NCC(=O)NC(C=O)CCCNC(=N)N (some centres undefined)
- IC50 [3]: > 100000 nM
- IC50 [4]: 3000 nM

SMILES: N=C(N)NCCCC(C=O)NC(=O)CNC(=O)[C@H](CCCN=C(N)N)NS(=O)(=O)CCc1ccccc1 (some centres undefined)
- Ratio [1]: 2300
- IC50 [2]: 38 nM

SMILES: N=C(N)NCCCC(C=O)NC(=O)CNC(=O)[C@H](CCCNC(=N)N)NS(=O)(=O)CCc1ccccc1 (some centres undefined)
- IC50 [3]: 64000 nM
- IC50 [4]: 28 nM

SMILES: N=C(N)NCCCC(C=O)NC(=O)CNC(=O)[C@H](CCCNC(=N)N)NS(=O)(=O)Cc1ccccc1 (some centres undefined)
- IC50 [3]: 50000 nM

SMILES: N=C(N)NCCCC(C=O)NC(=O)CNC(=O)[C@H](CCCNC(=N)N)NS(=O)(=O)CCc1cccc2ccccc12 (some centres undefined)
- IC50 [3]: 39000 nM
- Ratio [1]: 1500
- IC50 [2]: 20 nM
- IC50 [4]: 27 nM

SMILES: CN(CC(=O)NC(C=O)CCCN=C(N)N)C(=O)[C@H](CCCN=C(N)N)NS(=O)(=O)Cc1ccccc1 (some centres undefined)
- Ratio [1]: 100
- IC50 [2]: 58 nM

SMILES: CN(CC(=O)NC(C=O)CCCNC(=N)N)C(=O)[C@H](CCCNC(=N)N)NS(=O)(=O)Cc1ccccc1 (some centres undefined)
- IC50 [3]: 2000 nM
- IC50 [4]: 20 nM

SMILES: CC(C)(C)OC(=O)N[C@@H](CCCNC(=N)N)C(=O)NCCC(=O)NC(C=O)CCCNC(=N)N (some centres undefined)
- IC50 [3]: > 500000 nM

SMILES: N=C(N)NCCCC(C=O)NC(=O)CNC(=O)[C@H](CCCNC(=N)N)NC(=O)COc1ccc2ccccc2c1 (some centres undefined)
- IC50 [3]: > 100000 nM

SMILES: CC(C)(C)OC(=O)N[C@@H](CCCN=C(N)N)C(=O)N1CCC[C@H]1C(=O)NC(C=O)CCCN=C(N)N (stereo partly drawn) (Boc-Arg-Pro-[ξR]-aldehyde)
- IC50 [3]: > 500000 nM
- Ratio [1]: 8
- IC50 [2]: 440000 nM
- IC50 [4]: 60000 nM

SMILES: CC(C)(C)OC(=O)N[C@@H](CCCN=C(N)N)C(=O)N[C@@H](Cc1cccc2ccccc12)C(=O)NC(C=O)CCCN=C(N)N (stereo partly drawn) (Boc-Arg-[1Nal]-[ξR]-aldehyde)
- Ratio [1]: 300
- IC50 [2]: 340 nM

SMILES: CC(C)(C)OC(=O)N[C@@H](CCCNC(=N)N)C(=O)N[C@@H](Cc1cccc2ccccc12)C(=O)NC(C=O)CCCNC(=N)N (stereo partly drawn) (Boc-Arg-[1Nal]-[ξR]-aldehyde)
- IC50 [3]: 42000 nM
- IC50 [4]: 140 nM

SMILES: CC(C)(C)OC(=O)N[C@@H](CCCN=C(N)N)C(=O)N1CCCC1C(=O)NC(C=O)CCCN=C(N)N (stereo partly drawn) (Boc-Arg-[ξP]-[ξR]-aldehyde)
- Ratio [1]: 4
- IC50 [2]: 21 nM

SMILES: CC(C)(C)OC(=O)N[C@@H](CCCNC(=N)N)C(=O)N1CCCC1C(=O)NC(C=O)CCCNC(=N)N (stereo partly drawn) (Boc-Arg-[ξP]-[ξR]-aldehyde)
- IC50 [3]: 200 nM
- IC50 [4]: 46 nM

SMILES: N=C(N)NCCC[C@H](NC(=O)CNC(=O)[C@@H](CCCNC(=N)N)NC(=O)OCc1ccccc1)C(=O)Nc1ccc([N+](=O)[O-])cc1 (HELM PEPTIDE1{[O=C(OCc1ccccc1)[*:2]].[dR].G.R.[O=[N+]([O-])c1ccc(N[*:1])cc1]}$$$$V2.0)
- kcat/Km [5]: 2.27e+06 M⁻¹ s⁻¹

SMILES: CC[C@H](C)[C@H](NC(=O)c1ccccc1)C(=O)N[C@@H](CCC(=O)O)C(=O)NCC(=O)N[C@@H](CCCN=C(N)N)C(=O)Nc1ccc([N+](=O)[O-])cc1 (HELM PEPTIDE1{[O=C(c1ccccc1)[*:2]].I.E.G.R.[O=[N+]([O-])c1ccc(N[*:1])cc1]}$$$$V2.0)
- kcat/Km [5]: 350000 M⁻¹ s⁻¹

SMILES: CC(C)(C)OC(=O)NC(CCCN=C(N)N)C(=O)NC(C)(C)C(=O)N[C@H](C=O)CCCN=C(N)N (single isomer, unassigned)
- IC50 [3]: > 500000 nM

SMILES: CC(C)(C)OC(=O)NC(CCCCN=C(N)N)C(=O)NCC(=O)N[C@H](C=O)CCCN=C(N)N (single isomer, unassigned)
- IC50 [3]: 400000 nM
- Ratio [1]: 4000
- IC50 [2]: 170 nM

SMILES: CC(=N)NCCCC(NC(=O)OC(C)(C)C)C(=O)NCC(=O)N[C@H](C=O)CCCN=C(N)N (single isomer, unassigned)
- IC50 [3]: 88000 nM
- Ratio [1]: 88
- IC50 [2]: 10000 nM
- IC50 [4]: 1000 nM

SMILES: CC(C)(C)OC(=O)NC(CCCNC(N)=O)C(=O)NCC(=O)N[C@H](C=O)CCCN=C(N)N (single isomer, unassigned)
- IC50 [3]: > 100000 nM

SMILES: CC(C)(C)OC(=O)NC(CCCN)C(=O)NCC(=O)N[C@H](C=O)CCCN=C(N)N (single isomer, unassigned)
- IC50 [3]: > 500000 nM
- Ratio [1]: 42
- IC50 [2]: 65000 nM
- IC50 [4]: 12000 nM

SMILES: N=C(N)NCCCC(NC(=O)CC(=O)O)C(=O)NCC(=O)N[C@H](C=O)CCCNC(=N)N (single isomer, unassigned)
- IC50 [3]: > 100000 nM
- IC50 [4]: 100 nM

SMILES: N=C(N)NCCCC(NC(=O)CCC(=O)O)C(=O)NCC(=O)N[C@H](C=O)CCCNC(=N)N (single isomer, unassigned)
- IC50 [3]: > 100000 nM

SMILES: N=C(N)NCCCC(NC(=O)CCc1ccccc1)C(=O)NCC(=O)N[C@H](C=O)CCCNC(=N)N (single isomer, unassigned)
- Ratio [1]: 375
- IC50 [2]: 2000 nM

SMILES: N=C(N)NCCC[C@@H](C=O)NC(=O)CNC(=O)C(CCCN=C(N)N)NC(=O)NCc1ccccc1 (single isomer, unassigned)
- IC50 [3]: 170000 nM
- Ratio [1]: 770
- IC50 [2]: 180 nM
- IC50 [4]: 220 nM

SMILES: CCOC(=O)NC(CCCN=C(N)N)C(=O)NCC(=O)N[C@H](C=O)CCCN=C(N)N (single isomer, unassigned)
- IC50 [3]: > 100000 nM
- IC50 [4]: 30 nM

SMILES: NC(N)=NCCCC(N)C(=O)NCC(=O)N[C@H](C=O)CCCN=C(N)N (single isomer, unassigned)
- IC50 [3]: 55000 nM
- Ratio [1]: 290
- IC50 [2]: 828 nM
- IC50 [4]: 190 nM

SMILES: CC(C)(C)OC(=O)NC(CCCCN)C(=O)NCC(=O)N[C@H](C=O)CCCN=C(N)N (single isomer, unassigned)
- IC50 [3]: > 100000 nM

SMILES: N=C(N)NCCCC(NC(=O)C(=O)O)C(=O)NCC(=O)N[C@H](C=O)CCCNC(=N)N (single isomer, unassigned)
- IC50 [2]: 630 nM

SMILES: CC(C)(C)OC(=O)NC(CCCN=C(N)N)C(=O)NCC(=O)N[C@H](C=O)CCCN=C(N)N (single isomer, unassigned; 4)
- IC50 [4]: 2000 nM
